Values of other authors as cited in patent US20230117397A1, “PIRFENIDONE FOR CORONAVIRUS TREATMENT” (Excalibur Pharmaceuticals, Inc., priority 2020, published 2023).
Read-outs that look alike come from different tables or passages of the source.

Columns and labels:
[1] = major urinary metabolite of pirfenidone
[2] = system: IL-10; settings: pirfenidone pre-treatment; by 3 hours
[3] = system: IL-6; settings: once daily 50 mg/kg/day or 100 mg/kg/day; dose dependent
[4] = system: IFN-γ; settings: pirfenidone added after cell stimulation with endotoxin
[5] = system: TNF-α; settings: once daily 50 mg/kg/day or 100 mg/kg/day; dose dependent
[6] = oral, healthy adults
[7] = system: IL-12; settings: pirfenidone pre-treatment before LPS
[8] = system: TNF-α
[9] = not given; remark: listed apart in the source
[10] = system: TNF-α; settings: pretreatment 5 minutes before LPS
[11] = system: TNF-α; settings: pirfenidone added after cell stimulation with endotoxin
[12] = system: endotoxic shock; settings: for survival: pretreatment 15 minutes before LPS
[13] = not given; remark: listed apart in the source
[14] = system: IFN-γ; settings: pirfenidone pre-treatment before LPS
[15] = MALDI-FTICR MSI
[16] = system: IL-10; settings: once daily 50 mg/kg/day or 100 mg/kg/day; dose dependent
[17] = system: silicosis (intratracheal silica slurry)

O=C(O)c1ccc(=O)n(-c2ccccc2)c1 [5-carboxy-pirfenidone]
biological activity [1]: limited to no biological activity

Cc1ccc(=O)n(-c2ccccc2)c1 [pirfenidone, 5-methyl-1-phenyl-2-(1H)-pyridone]
IL-10 expression enhanced [2]: approximately 27 fold | IL-6 [3]: significant reduction | levels of secreted IFN-γ protein [4]: significantly decrease | steady state levels of IFN-γ RNA [4]: did not change | TNF-α [5]: significant reduction | terminal half-life [6]: approximately 2.5 hours | time to maximum levels in blood ([6]; fasting): 0.5 h | time to maximum levels in blood ([6]; post food): 2 h | IL-12 suppressed [7]: 84% | TNF-α expression ([8]; 200 mg/kg immediately after LPS): inhibited | TNF-α expression inhibited ([8]; 200 mg/kg, 30 or 60 minutes before or after LPS): not | time to maximum serum concentration (after dosing): within an hour | terminal half-life (in vivo): approximately 2 hours | most common side effects ([9]; 10% or more greater than placebo): nausea, dyspepsia and rash | AST/ALT elevation, incidence ([9]; in vivo): < 3% | bilirubin elevation, incidence ([9]; very rarely): 0.1% | TNF-α levels suppressed [10]: 97% | levels of secreted TNF-α protein [11]: significantly decrease | steady state levels of TNF-α RNA [11]: did not change | survival ([12]; 100 mg/kg, 4/8): 50% | survival ([12]; 500 mg/kg, 8/8): 100% | protection from death ([12]; pretreatment 3 hours before LPS): partial protection | protection from death ([12]; pretreatment 6 hours or more before LPS): none | survived (survivors/animals) ([12]; single oral dose 1 hour after LPS): 5/5 | survived (survivors/animals) ([12]; single oral dose 3 hours after LPS): 4/5 | survived (survivors/animals) ([12]; single oral dose 5 hours after LPS): 1/5 | half-life ([13]; following from the clearance): less than 2 hours | drug clearance ([13]; oral administration): approximately 30 ml/min/kg | IFN-γ inhibited [14]: 91% | T1/2 in kidney tissue ([15]; kidney tissue): 49 min | T1/2 in liver tissue ([15]; liver tissue): 46 min | T1/2 in lung tissue ([15]; lung tissue): 67 min | IL-10 [16]: significant reduction | dose response difference in inflammation and fibrosis ([17]; between the 50 mg/kg/day and 100 mg/kg/day treatment groups): approximately 15% | inflammation and resulting fibrosis ([17]; once daily 50 mg/kg/day or 100 mg/kg/day): significantly decreased
